These results are taken from paper PMC7248105, “Photoinduced monooxygenation involving NAD(P)H-FAD sequential single-electron transfer” (Nature Communications, 2020).

The target of series [1] is T1, PqsL (Pseudomonas aeruginosa, UniProt Q9HWJ1).
T1 construct: final models contain residues 3–370
The series is described as follows: X-ray crystal structure with FAD and 2-ABA; KD by fluorescence spectroscopy. The series is classed as binding.

In series [2] the target is T1, PqsL. The series can be described thus: FAD fluorescence polarization; X-ray crystal structure. It is filed as binding.
Series [3] concerns the target T2, PqsL (Pseudomonas aeruginosa, UniProt Q9HWJ1, P273A).
T2 sequence (Q9HWJ1 1-398 P273A): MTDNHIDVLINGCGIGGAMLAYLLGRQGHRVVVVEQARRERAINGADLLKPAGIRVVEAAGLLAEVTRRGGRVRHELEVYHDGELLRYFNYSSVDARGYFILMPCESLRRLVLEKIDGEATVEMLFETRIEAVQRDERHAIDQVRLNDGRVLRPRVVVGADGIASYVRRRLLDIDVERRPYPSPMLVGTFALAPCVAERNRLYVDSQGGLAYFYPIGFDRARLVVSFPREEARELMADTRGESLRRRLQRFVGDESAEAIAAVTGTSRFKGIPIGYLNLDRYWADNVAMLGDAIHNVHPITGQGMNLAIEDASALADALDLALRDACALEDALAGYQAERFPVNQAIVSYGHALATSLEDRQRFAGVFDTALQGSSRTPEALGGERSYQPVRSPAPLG
The series is described as follows: FAD binding affinity (fluorescence spectroscopy).

The target in a further series is T3, PqsL-Q (Pseudomonas aeruginosa, UniProt Q9HWJ1, C105G/G45R/I43R/R41Y).
T3 construct: final models contain residues 3–370
T3 sequence (Q9HWJ1 1-398 R41Y/I43R/G45R/C105G): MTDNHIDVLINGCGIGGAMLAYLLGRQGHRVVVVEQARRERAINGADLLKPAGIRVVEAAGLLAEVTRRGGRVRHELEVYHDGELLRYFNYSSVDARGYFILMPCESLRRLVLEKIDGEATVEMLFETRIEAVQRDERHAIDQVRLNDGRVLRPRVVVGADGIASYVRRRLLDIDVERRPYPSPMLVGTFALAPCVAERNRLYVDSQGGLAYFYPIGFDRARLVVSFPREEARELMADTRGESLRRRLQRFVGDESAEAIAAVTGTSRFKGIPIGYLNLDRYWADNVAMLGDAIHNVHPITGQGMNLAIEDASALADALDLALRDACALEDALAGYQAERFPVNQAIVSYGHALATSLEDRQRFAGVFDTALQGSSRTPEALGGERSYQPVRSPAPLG
The series can be described thus: FAD fluorescence polarization; X-ray crystal structure. It is filed as binding.

For series [4], the system named is NC(=O)C1=CN([C@@H]2O[C@H](COP(=O)(O)OP(=O)(O)OC[C@H]3O[C@@H](n4cnc5c(N)ncnc54)[C@H](O)[C@@H]3O)[C@@H](O)[C@H]2O)C=CC1. The series is described as follows: purified protein. Conditions: FAD.
For series [5], the system named is NC(=O)C1=CN([C@@H]2O[C@H](COP(=O)(O)OP(=O)(O)OC[C@H]3O[C@@H](n4cnc5c(N)ncnc54)[C@H](OP(=O)(O)O)[C@@H]3O)[C@@H](O)[C@H]2O)C=CC1. The series is described as follows: purified protein. The settings on record: FAD.
Series [6] concerns the molecule itself. The series can be described thus: SEC; analytical gel filtration, Superdex 200 Increase 10/300 GL, 20 mM tris-HCl pH 8.5 without NaCl, 12 °C, calibrated with Bio-Rad standard.

On PqsL [1], `Nc1ccccc1C(=O)CC(=O)O` [2-ABA, 2-aminobenzoylacetate] displayed a Kd of 38.4 ± 3.98 µM.
Consider `Cc1cc2nc3c(=O)[nH]c(=O)nc-3n(C[C@H](O)[C@H](O)[C@H](O)COP(=O)(O)OP(=O)(O)OC[C@H]3O[C@@H](n4cnc5c(N)ncnc54)[C@H](O)[C@@H]3O)c2cc1C` [FAD], for which the Kd at PqsL [2] was found to be 250 ± 29.8 nM; at PqsL [3] it was 64 µM; at PqsL-Q, 37.5 ± 6.7 nM.
Turning to PqsL (Pseudomonas aeruginosa PAO1), the Km is on record as 310.9 ± 21.6 µM in series [4] and 157.5 ± 18.9 µM in series [5].

B1: PqsL (flavoprotein monooxygenase, wild type) (enzyme, Pseudomonas aeruginosa)
chain: MTDNHIDVLINGCGIGGAMLAYLLGRQGHRVVVVEQARRERAINGADLLKPAGIRVVEAAGLLAEVTRRGGRVRHELEVYHDGELLRYFNYSSVDARGYFILMPCESLRRLVLEKIDGEATVEMLFETRIEAVQRDERHAIDQVRLNDGRVLRPRVVVGADGIASYVRRRLLDIDVERRPYPSPMLVGTFALAPCVAERNRLYVDSQGGLAYFYPIGFDRARLVVSFPREEARELMADTRGESLRRRLQRFVGDESAEAIAAVTGTSRFKGIPIGYLNLDRYWADNVAMLGDAIHNVHPITGQGMNLAIEDASALADALDLALRDACALEDALAGYQAERFPVNQAIVSYGHALATSLEDRQRFAGVFDTALQGSSRTPEALGGERSYQPVRSPAPLG
notes: PqsL, FAD-dependent monooxygenase of alkyl quinolone N-oxide biosynthesis, Pseudomonas aeruginosa; the crystal models hold residues 3-370; One protomer is written; also called Wild-type PqsL; FPMO PqsL; source: E. coli LMG194 (pHERD30T), purified (Ni-NTA, Resource Q anion exchange)
As for B1, the “stoichiometry N” value in series [6] turned out to be 2.
